Measurements taken from patent US20200392116A1, “SUBSTITUTED HETEROCYCLES AS c-MYC TARGETING AGENTS” (NORTHWESTERN UNIVERSITY, priority 2019, published 2020).
pIC50: −log10 of the molar value. Read-outs that look alike come from different tables or passages of the source.

How the values were obtained:
[1] = tested on: MYC transcriptional activity (c-Myc E-box-luciferase reporter, MycCap cells); assay: MYC E-box luciferase reporter assay; type: cell-based; details: Mus musculus, Myc-CaP
Procedure: To test the compounds, we evaluated the in silico hits in a MYC E-Box luciferase reporter assay to measure the effects of these compounds (referred to as Min-1 to Min-32) on MYC transcriptional activity. […] (See FIG. 2).
MycCap cells stably expressing luciferase with CMV promoter (MycCap-luc) or c-Myc E-box-luciferase reporter (MycCap Ebox-luc) were plated at 10000 cells per well in 96 well white-wall plate. Serial dilutions of 361 were treated next day. At 4 hours of treatment, luminescence signal was determined immediately after adding 150 μg/ml of Luciferin to the well. (See FIG. 12).

[2] = tested on: CMV reporter; assay: CMV reporter assay (control reporter beside the Ebox reporter); type: cell-based
[3] = class symbols, read-out: Ebox reporter: IC50
[4] = class symbols, read-out: Eboc reporter IC50
[5] = given as numeric bound, read-out: Ebox reporter: IC50

SMILES | pIC50 [1, 3] | pIC50 [2] | pIC50 [1, 4] | pIC50 ([2]; class symbols) | pIC50 [1, 5]
Cn1nc(C(F)(F)F)cc1-c1ccc(N(Cc2ccc(Cl)cc2)C(=O)c2ccc(F)cc2)cc1O [NUCC-0202711] | 5.00 to 5.30 | < 4.30 | – | – | –
Cn1nc(-c2ccc(C(=O)Nc3ccc(Cl)c(C(F)(F)F)c3)cc2O)cc1C(F)(F)F [NUCC-0202985] | – | – | < 4.30 | < 4.30 | –
Cn1nc(C(F)(F)F)cc1-c1ccc(N(Cc2ccc(Cl)cc2)C(=O)c2ccc(C(F)(F)F)c(Cl)c2)cc1O [NUCC-0202423] | > 5.30 | < 4.30 | – | – | –
Cn1nc(-c2ccc(OC3CCOCC3)c(-c3ccc(Cl)c(C(F)(F)F)c3)c2O)cc1C(F)(F)F [NUCC-0202428] | – | < 4.30 | – | – | < 4.30
COc1c(-c2ccc(OCc3ccc(Cl)cc3)cc2O)nn(C)c1C(F)(F)F [NUCC-0202652] | – | < 4.30 | – | – | < 4.30
Cn1nc(O)cc1-c1ccc(OCc2ccc(Cl)cc2)c(-c2ccc(Cl)c(C(F)(F)F)c2)c1O [NUCC-0202638] | 4.30 to 5.00 | < 4.30 | – | – | –
Oc1c(-c2cc(C(F)(F)F)n[nH]2)cc(F)c(OCc2ccc(Cl)cc2)c1-c1ccc(Cl)c(C(F)(F)F)c1 [NUCC-0202687] | > 5.30 | < 4.30 | – | – | –
Cn1nc(C(F)(F)F)cc1-c1ccc(N(Cc2ccc(Cl)cc2)C(=O)c2cncc(F)c2)cc1O [NUCC-0202692] | 5.00 to 5.30 | < 4.30 | – | – | –
COc1c(C(F)(F)F)nn(C)c1-c1ccc(OCc2ccc(Cl)cc2)cc1O [NUCC-0202651] | 5.00 to 5.30 | < 4.30 | – | – | –
COc1ccc(C(=O)N(Cc2ccc(Cl)cc2)c2ccc(-c3cc(C(F)(F)F)nn3C)c(O)c2)cc1 [NUCC-0202717] | 5.00 to 5.30 | < 4.30 | – | – | –
Cn1nc(-c2ccc(N(Cc3ccc(Cl)cc3)C(=O)c3ccc(C(F)(F)F)c(Cl)c3)cc2O)cc1C(F)(F)F [NUCC-0202424] | – | < 4.30 | – | – | < 4.30
Cn1nc(C(F)(F)F)cc1-c1ccc(N(Cc2ccc(Cl)cc2)C(=O)c2ccc(Cl)cc2)cc1O [NUCC-0202703] | > 5.30 | < 4.30 | – | – | –
COc1cccc(C(=O)N(Cc2ccc(Cl)cc2)c2ccc(-c3cc(C(F)(F)F)n(C)n3)c(O)c2)c1 [NUCC-0202695] | – | < 4.30 | – | – | < 4.30
Cn1nc(C(F)(F)F)cc1-c1ccc(OCc2ccc(Cl)cc2)c(-c2ccc(Cl)c(C(F)(F)F)c2)c1F [NUCC-0202641] | – | < 4.30 | – | – | < 4.30
Cn1nc(C(F)(F)F)cc1-c1ccc(N(Cc2ccc(Cl)cc2)C(=O)c2ccc(Cl)cc2C(F)(F)F)cc1O [NUCC-0202709] | 5.00 to 5.30 | < 4.30 | – | – | –
CC(Oc1ccc(-c2cc(C(F)(F)F)n(C)n2)c(O)c1-c1ccc(Cl)c(C(F)(F)F)c1)c1ccc(Cl)cc1 (stereo not shown) [NUCC-0202437] | – | < 4.30 | – | – | < 4.30
Cn1nc(C(=O)O)cc1-c1ccc(OCc2ccc(Cl)cc2)c(-c2ccc(Cl)c(C(F)(F)F)c2)c1O [NUCC-0202524] | 4.30 to 5.00 | < 4.30 | – | – | –
Cn1nc(C(F)(F)F)cc1-c1ccc(N(Cc2ccc(Cl)cc2)C(=O)c2ccc3nccn3c2)cc1O [NUCC-0202693] | > 5.30 | < 4.30 | – | – | –
Cn1nc(C(F)(F)F)c(Oc2ccc(Cl)c(F)c2)c1-c1ccc(OCc2ccc(Cl)cc2)cc1O [NUCC-0202537] | 5.00 to 5.30 | 4.40 | – | – | –

SMILES | pIC50 [1, 3] | pIC50 [2] | pIC50 [1, 4] | pIC50 ([2]; class symbols) | pIC50 [1, 5]
Cn1nc(C(F)(F)F)cc1-c1ccc(N(Cc2ccc(Cl)cc2)C(=O)c2ccccc2Cl)cc1O [NUCC-0202712] | 4.30 to 5.00 | < 4.30 | – | – | –
COc1ccc(-c2cc(C(F)(F)F)n(C)n2)c(O)c1-c1ccc(Cl)c(C(F)(F)F)c1 [NUCC-0202430] | – | < 4.30 | – | – | < 4.30
CNC(=O)c1cc(-c2ccc(OCc3ccc(Cl)cc3)c(-c3ccc(Cl)c(C(F)(F)F)c3)c2O)nn1C [NUCC-0202529] | 4.30 to 5.00 | < 4.30 | – | – | –
Cn1nc(-c2ccc(N(Cc3ccc(Cl)cc3)C(=O)c3ccccc3Cl)cc2O)cc1C(F)(F)F [NUCC-0202702] | – | < 4.30 | – | – | < 4.30
Cn1nc(C(F)(F)F)cc1-c1ccc(N(Cc2ccc(Cl)cc2)C(=O)c2ccccc2C(F)(F)F)cc1O [NUCC-0202723] | 5.00 to 5.30 | < 4.30 | – | – | –
Cn1nc(C(F)(F)F)cc1-c1ccc(OCc2ccc(Cl)cc2)c(-c2ccc(Cl)c(C(F)(F)F)c2)c1O [NUCC-0202538] | – | < 4.30 | – | – | < 4.30
Cn1nc(C(F)(F)F)cc1-c1ccc(OC2CCOCC2)c(-c2ccc(Cl)c(C(F)(F)F)c2)c1O [NUCC-0202427] | 4.30 to 5.00 | < 4.30 | – | – | –
Oc1c(-c2cc(C(F)(F)F)n[nH]2)c(Cl)cc(OCc2ccc(Cl)cc2)c1-c1ccc(Cl)c(C(F)(F)F)c1 [NUCC-0202986] | – | – | > 5.30 | 4.30 to 5.00 | –
Cn1nc(-c2ccc(N(Cc3ccc(Cl)cc3)C(=O)c3ccc(C(F)(F)F)cc3Cl)cc2O)cc1C(F)(F)F [NUCC-0202708] | – | < 4.30 | – | – | < 4.30
Cn1nc(C(F)(F)F)cc1-c1ccc(N(Cc2ccc(Cl)cc2)C(=O)c2ccc(F)c(F)c2)cc1O [NUCC-0202706] | > 5.30 | < 4.30 | – | – | –
Cn1nc(C(F)(F)F)cc1-c1ccc(N(Cc2ccc(Cl)cc2)C(=O)c2cncc(C(F)(F)F)c2)cc1O [NUCC-0202688] | 5.00 to 5.30 | < 4.30 | – | – | –
Cn1nc(-c2ccc(N(Cc3ccc(Cl)cc3)C(=O)c3ccc(Cl)cc3C(F)(F)F)cc2O)cc1C(F)(F)F [NUCC-0202710] | – | < 4.30 | – | – | < 4.30
Cn1nc(-c2c(Cl)cc(OCc3ccc(Cl)cc3)c(-c3ccc(Cl)c(C(F)(F)F)c3)c2O)cc1C(F)(F)F [NUCC-0202988] | – | – | < 4.30 | < 4.30 | –
COCCOc1ccc(-c2cc(C(F)(F)F)nn2C)c(O)c1-c1ccc(Cl)c(C(F)(F)F)c1 [NUCC-0202425] | 4.30 to 5.00 | < 4.30 | – | – | –
Cn1nc(-c2ccc(OCc3ccc(Cl)cc3)c(Oc3ccc(F)cn3)c2O)cc1C(F)(F)F [NUCC-0202422] | – | < 4.30 | – | – | < 4.30
Cn1nc(-c2ccc(COc3ccc(Cl)cc3)c(-c3ccc(Cl)c(C(F)(F)F)c3)c2O)cc1C(F)(F)F [NUCC-0202421] | – | < 4.30 | – | – | < 4.30
Cn1nc(-c2ccc(N(Cc3ccc(Cl)cc3)C(=O)c3ccc(F)cc3)cc2O)cc1C(F)(F)F [NUCC-0202701] | – | < 4.30 | – | – | < 4.30
Cn1nc(-c2ccc(N(Cc3ccc(Cl)cc3)C(=O)c3ccc(C(F)(F)F)cc3)cc2O)cc1C(F)(F)F [NUCC-0202714] | – | < 4.30 | – | – | < 4.30
Cn1nc(-c2ccc(N(Cc3ccc(Cl)cc3)C(=O)c3cccc(S(C)(=O)=O)c3)cc2O)cc1C(F)(F)F [NUCC-0202721] | – | < 4.30 | – | – | < 4.30

SMILES | pIC50 [1, 3] | pIC50 [2] | pIC50 [1, 4] | pIC50 ([2]; class symbols) | pIC50 [1, 5]
Cn1nc(-c2ccc(CNc3ccc(Cl)c(C(F)(F)F)c3)cc2O)cc1C(F)(F)F [NUCC-0202981] | – | – | 4.30 to 5.00 | < 4.30 | –
Cn1nc(C(F)(F)F)cc1-c1ccc(N(Cc2ccc(Cl)cc2)C(=O)c2ccc(C(F)(F)F)cc2Cl)cc1O [NUCC-0202720] | 5.00 to 5.30 | < 4.30 | – | – | –
NC(=O)c1cc(-c2ccc(OCc3ccc(Cl)cc3)c(-c3ccc(Cl)c(C(F)(F)F)c3)c2O)[nH]n1 [NUCC-0202521] | 4.30 to 5.00 | 4.47 | – | – | –
Cn1nc(-c2ccc(OCc3ccc(Cl)cc3)c(-c3ccc(Cl)c(C(F)(F)F)c3)c2O)cc1O [NUCC-0202644] | 4.30 to 5.00 | < 4.30 | – | – | –
Cn1nc(C(F)(F)F)cc1-c1ccc(N(Cc2ccc(Cl)cc2)C(=O)c2ccccc2F)cc1O [NUCC-0202715] | 5.00 to 5.30 | < 4.30 | – | – | –
Cn1nc(C(F)(F)F)cc1-c1ccc(COc2ccc(Cl)cc2)c(-c2ccc(Cl)c(C(F)(F)F)c2)c1O [NUCC-0202416] | > 5.30 | < 4.30 | – | – | –
Cn1nc(-c2cc(Cl)c(OCc3ccc(Cl)cc3)c(-c3ccc(Cl)c(C(F)(F)F)c3)c2O)cc1C(F)(F)F [NUCC-0202642] | – | < 4.30 | – | – | < 4.30
Cn1nc(-c2ccc(N(Cc3ccc(Cl)cc3)C(=O)c3ccc4nccn4c3)cc2O)cc1C(F)(F)F [NUCC-0202725] | 4.30 to 5.00 | < 4.30 | – | – | –
Cn1nc(C(F)(F)F)cc1-c1ccc(N(Cc2ccc(Cl)cc2)C(=O)c2ccnc(C(F)(F)F)c2)cc1O [NUCC-0202700] | > 5.30 | < 4.30 | – | – | –
Cn1nc(-c2ccc(OCc3ccc(Cl)cc3)c(-c3ccc(Cl)c(C(F)(F)F)c3)c2O)cc1C(=O)O [NUCC-0202525] | 4.30 to 5.00 | < 4.30 | – | – | –
Cn1nc(C(F)(F)F)cc1-c1ccc(C(=O)Nc2ccc(Cl)c(C(F)(F)F)c2)cc1O [NUCC-0202984] | – | – | > 5.30 | 4.30 to 5.00 | –
Cn1nc(C(F)(F)F)c(Oc2ccc(F)c(Cl)c2)c1-c1ccc(OCc2ccc(Cl)cc2)cc1O [NUCC-0202637] | 5.00 to 5.30 | 4.37 | – | – | –
Cn1nc(C(F)(F)F)cc1-c1cnc(OCc2ccc(Cl)cc2)c(-c2ccc(Cl)c(C(F)(F)F)c2)c1O [NUCC-0202686] | > 5.30 | 4.51 | – | – | –
Cn1nc(C(F)(F)F)cc1-c1ccc(CNc2ccc(Cl)cc2)c(-c2ccc(Cl)c(C(F)(F)F)c2)c1O [NUCC-0202414] | 5.00 to 5.30 | < 4.30 | – | – | –
Cn1nc(-c2ccc(N(Cc3ccc(Cl)cc3)C(=O)c3cccc(Cl)c3)cc2O)cc1C(F)(F)F [NUCC-0202699] | – | < 4.30 | – | – | < 4.30
Cc1cc(-c2ccc(OCc3ccc(Cl)cc3)c(-c3ccc(Cl)c(C(F)(F)F)c3)c2O)[nH]n1 [NUCC-0202532] | 4.30 to 5.00 | < 4.30 | – | – | –
Cn1nc(C(F)(F)F)cc1-c1ccc(N(Cc2ccc(Cl)cc2)C(=O)c2cncc(C#N)c2)cc1O [NUCC-0202724] | 5.00 to 5.30 | < 4.30 | – | – | –
CNC(=O)c1cc(-c2ccc(OCc3ccc(Cl)cc3)c(-c3ccc(Cl)c(C(F)(F)F)c3)c2O)n(C)n1 [NUCC-0202635] | 4.30 to 5.00 | < 4.30 | – | – | –
